{
  "source": "ChEMBL document CHEMBL5154879",
  "about": "“Induction of Genes Implicated in Stress Response and Autophagy by a Novel Quinolin-8-yl-nicotinamide QN523 in Pancreatic Cancer” (J Med Chem, 2022)",
  "format_in_all_cases": "functional, cell-based",
  "key": {"MIA PaCa-2": {"system": "MIA PaCa-2", "assay": "Cytotoxicity against human MIA PaCa-2 cells assessed as inhibition of cell growth incubated for 72 hrs by MTT assay", "conditions": "MIA PaCa-2, 72 h"}, "PANC-1": {"system": "PANC-1", "assay": "Cytotoxicity against human PANC-1 cells assessed as inhibition of cell growth incubated for 72 hrs by MTT assay", "conditions": "PANC-1, 72 h"}, "BXPC-3": {"system": "BXPC-3", "assay": "Cytotoxicity against human BXPC-3 cells assessed as inhibition of cell growth incubated for 72 hrs by MTT assay", "conditions": "BXPC-3, 72 h"}},
  "data": [
    {"molecule": "Cc1cnc(C(=O)Nc2ccc3ncccc3c2)cn1", "values": [
      {"measurement": "IC50", "setting": "MIA PaCa-2", "result": "> 10", "unit": "µM"},
      {"measurement": "IC50", "setting": "PANC-1", "result": "> 10", "unit": "µM"},
      {"measurement": "IC50", "setting": "BXPC-3", "result": "> 10", "unit": "µM"}
    ]},
    {"molecule": "O=C(Nc1cccc2cccnc12)c1ncc2ccccc2n1", "values": [
      {"measurement": "IC50", "setting": "MIA PaCa-2", "result": "> 10", "unit": "µM"},
      {"measurement": "IC50", "setting": "PANC-1", "result": "> 10", "unit": "µM"},
      {"measurement": "IC50", "setting": "BXPC-3", "result": "> 10", "unit": "µM"}
    ]},
    {"molecule": "CC(C)(C)OC(=O)N1CCC(CCOc2cc(NC(=O)c3ncccn3)c3ncccc3c2)CC1", "values": [
      {"measurement": "IC50", "setting": "MIA PaCa-2", "result": "> 10", "unit": "µM"},
      {"measurement": "IC50", "setting": "PANC-1", "result": "> 10", "unit": "µM"},
      {"measurement": "IC50", "setting": "BXPC-3", "result": "> 10", "unit": "µM"}
    ]},
    {"molecule": "NCCOc1cc(NC(=O)c2ncccn2)c2ncccc2c1", "values": [
      {"measurement": "IC50", "setting": "MIA PaCa-2", "result": "> 10", "unit": "µM"},
      {"measurement": "IC50", "setting": "PANC-1", "result": "> 10", "unit": "µM"},
      {"measurement": "IC50", "setting": "BXPC-3", "result": "> 10", "unit": "µM"}
    ]},
    {"molecule": "O=C(Nc1cc(Cl)cc2cccnc12)c1cnccn1", "values": [
      {"measurement": "IC50", "setting": "MIA PaCa-2", "result": 2.83, "unit": "µM"},
      {"measurement": "IC50", "setting": "PANC-1", "result": 2.7, "unit": "µM"},
      {"measurement": "IC50", "setting": "BXPC-3", "result": "> 10", "unit": "µM"}
    ]},
    {"molecule": "O=C(Nc1nccc2cccnc12)c1cnccn1", "values": [
      {"measurement": "IC50", "setting": "MIA PaCa-2", "result": 7.7, "unit": "µM"},
      {"measurement": "IC50", "setting": "PANC-1", "result": 6.7, "unit": "µM"},
      {"measurement": "IC50", "setting": "BXPC-3", "result": 7.2, "unit": "µM"}
    ]},
    {"molecule": "O=C(Nc1cc(OCCN2CCCCC2)cc2cccnc12)c1cnccn1", "values": [
      {"measurement": "IC50", "setting": "MIA PaCa-2", "result": "> 10", "unit": "µM"},
      {"measurement": "IC50", "setting": "PANC-1", "result": "> 10", "unit": "µM"},
      {"measurement": "IC50", "setting": "BXPC-3", "result": "> 10", "unit": "µM"}
    ]},
    {"molecule": "Cc1cnc(C(=O)Nc2cc(F)cc3cccnc23)cn1", "values": [
      {"measurement": "IC50", "setting": "MIA PaCa-2", "result": 0.31, "unit": "µM"},
      {"measurement": "IC50", "setting": "PANC-1", "result": 2.1, "unit": "µM"},
      {"measurement": "IC50", "setting": "BXPC-3", "result": "> 10", "unit": "µM"}
    ]},
    {"molecule": "CC(C)(C)OC(=O)C1CCN(CCOc2cc(NC(=O)c3cnccn3)c3ncccc3c2)CC1", "values": [
      {"measurement": "IC50", "setting": "MIA PaCa-2", "result": 3.67, "unit": "µM"},
      {"measurement": "IC50", "setting": "PANC-1", "result": 9.5, "unit": "µM"},
      {"measurement": "IC50", "setting": "BXPC-3", "result": 3.33, "unit": "µM"}
    ]},
    {"molecule": "O=C(Nc1cccc2cccnc12)c1ccc(Br)cn1", "values": [
      {"measurement": "IC50", "setting": "MIA PaCa-2", "result": 1.8, "unit": "µM"},
      {"measurement": "IC50", "setting": "PANC-1", "result": 4, "unit": "µM"},
      {"measurement": "IC50", "setting": "BXPC-3", "result": "> 10", "unit": "µM"}
    ]},
    {"molecule": "Cc1ccc(C(=O)Nc2cccc3cccnc23)cn1", "values": [
      {"measurement": "IC50", "setting": "MIA PaCa-2", "result": "> 10", "unit": "µM"},
      {"measurement": "IC50", "setting": "PANC-1", "result": "> 10", "unit": "µM"},
      {"measurement": "IC50", "setting": "BXPC-3", "result": "> 10", "unit": "µM"}
    ]},
    {"molecule": "O=C(Nc1cc(OCCF)cc2cccnc12)c1cnccn1", "values": [
      {"measurement": "IC50", "setting": "MIA PaCa-2", "result": 0.37, "unit": "µM"},
      {"measurement": "IC50", "setting": "PANC-1", "result": 0.53, "unit": "µM"},
      {"measurement": "IC50", "setting": "BXPC-3", "result": 4.33, "unit": "µM"}
    ]},
    {"molecule": "CN(C)Cc1ccc2cccc(NC(=O)c3cnccn3)c2n1", "values": [
      {"measurement": "IC50", "setting": "MIA PaCa-2", "result": "> 10", "unit": "µM"},
      {"measurement": "IC50", "setting": "PANC-1", "result": "> 10", "unit": "µM"},
      {"measurement": "IC50", "setting": "BXPC-3", "result": "> 10", "unit": "µM"}
    ]},
    {"molecule": "CC(C)(C)OC(=O)NCCOc1cc(NC(=O)c2cnccn2)c2ncccc2c1", "values": [
      {"measurement": "IC50", "setting": "MIA PaCa-2", "result": 0.87, "unit": "µM"},
      {"measurement": "IC50", "setting": "PANC-1", "result": 9.5, "unit": "µM"},
      {"measurement": "IC50", "setting": "BXPC-3", "result": 9.17, "unit": "µM"}
    ]},
    {"molecule": "Cc1cnc(C(=O)Nc2cc(OCCN3CCOCC3)cc3cccnc23)cn1", "values": [
      {"measurement": "IC50", "setting": "MIA PaCa-2", "result": 0.73, "unit": "µM"},
      {"measurement": "IC50", "setting": "PANC-1", "result": 3.5, "unit": "µM"},
      {"measurement": "IC50", "setting": "BXPC-3", "result": 2, "unit": "µM"}
    ]},
    {"molecule": "Cc1cnc(C(=O)Nc2cc(OCCN)cc3cccnc23)cn1", "values": [
      {"measurement": "IC50", "setting": "MIA PaCa-2", "result": "> 10", "unit": "µM"},
      {"measurement": "IC50", "setting": "PANC-1", "result": "> 10", "unit": "µM"},
      {"measurement": "IC50", "setting": "BXPC-3", "result": "> 10", "unit": "µM"}
    ]},
    {"molecule": "Cc1cnc(C(=O)Nc2cc(OCCC3CCNCC3)cc3cccnc23)cn1", "values": [
      {"measurement": "IC50", "setting": "MIA PaCa-2", "result": 6.17, "unit": "µM"},
      {"measurement": "IC50", "setting": "PANC-1", "result": "> 10", "unit": "µM"},
      {"measurement": "IC50", "setting": "BXPC-3", "result": 8.33, "unit": "µM"}
    ]},
    {"molecule": "O=C(Nc1cccc2cccnc12)c1cccc(Br)n1", "values": [
      {"measurement": "IC50", "setting": "MIA PaCa-2", "result": "> 10", "unit": "µM"},
      {"measurement": "IC50", "setting": "PANC-1", "result": "> 10", "unit": "µM"},
      {"measurement": "IC50", "setting": "BXPC-3", "result": "> 10", "unit": "µM"}
    ]},
    {"molecule": "COc1cc(NC(=O)c2cnccn2)c2ncccc2c1", "values": [
      {"measurement": "IC50", "setting": "MIA PaCa-2", "result": 0.47, "unit": "µM"},
      {"measurement": "IC50", "setting": "PANC-1", "result": 2.17, "unit": "µM"},
      {"measurement": "IC50", "setting": "BXPC-3", "result": 0.47, "unit": "µM"}
    ]},
    {"molecule": "O=C(Nc1cccc2cccnc12)c1ccc(F)nc1", "values": [
      {"measurement": "IC50", "setting": "MIA PaCa-2", "result": "> 10", "unit": "µM"},
      {"measurement": "IC50", "setting": "PANC-1", "result": "> 10", "unit": "µM"},
      {"measurement": "IC50", "setting": "BXPC-3", "result": "> 10", "unit": "µM"}
    ]},
    {"molecule": "Cc1cnc(C(=O)Nc2ccc(Br)c3cccnc23)cn1", "values": [
      {"measurement": "IC50", "setting": "MIA PaCa-2", "result": 2.2, "unit": "µM"},
      {"measurement": "IC50", "setting": "PANC-1", "result": 6.8, "unit": "µM"},
      {"measurement": "IC50", "setting": "BXPC-3", "result": "> 10", "unit": "µM"}
    ]},
    {"molecule": "Cc1ccc2cccc(NC(=O)c3ncccn3)c2n1", "values": [
      {"measurement": "IC50", "setting": "MIA PaCa-2", "result": "> 10", "unit": "µM"},
      {"measurement": "IC50", "setting": "PANC-1", "result": "> 10", "unit": "µM"},
      {"measurement": "IC50", "setting": "BXPC-3", "result": "> 10", "unit": "µM"}
    ]},
    {"molecule": "O=C(Nc1cc(OCCN2CCOCC2)cc2cccnc12)c1cnccn1", "values": [
      {"measurement": "IC50", "setting": "MIA PaCa-2", "result": 1.7, "unit": "µM"},
      {"measurement": "IC50", "setting": "PANC-1", "result": 8.17, "unit": "µM"},
      {"measurement": "IC50", "setting": "BXPC-3", "result": 5.17, "unit": "µM"}
    ]}
  ]
}
